In patent US20230219969A1 (priority 2020, published 2023):

molecular target: T1, 5HT2A (Homo sapiens, UniProt P28223); experiment: Serotonin 5-HT2A in vitro radioligand binding competition assay ([3H]-DOI); set-up: purchased Epics Therapeutics S.A. (Belgium) FAST-0505B; settings: not given
Procedure: Serotonin 5-HT2A In Vitro Radioligand Binding Competition Assay. The 5-HT2A radioligand binding competition assay was performed at Epics Therapeutics S.A. (Belgium, FAST-0505B) using conventional methods. Briefly, competition binding is performed in duplicate in the wells of a 96 well plate (Master Block, Greiner, 786201) containing binding buffer (optimized for each receptor), membrane extracts (amount of protein/well optimized for each receptor), radiotracer [^3H]-DOI (final concentration optimized for each receptor) and test compound. Nonspecific binding is determined by co-incubation with 200-fold excess of cold competitor. The samples are incubated in a final volume of 0.1 ml at a temperature and for a duration optimized for each receptor and then filtered over filter plates. Filters are washed six times with 0.5 ml of ice-cold washing buffer (optimized for each receptor) and 50 μl of Microscint 20 (Packard) are added in each well. The plates are incubated 15 min on an orbital shaker and then counted with a TopCount™ for 1 min/well.
(§1) The compounds provided herein were tested in the Serotonin 5-HT2A and 5-HT2C in vitro radioligand binding and cellular IPOne agonism assays. The binding and agonism functional potencies of several compound provided herein compounds (as indicated by their IC50s or EC50s) are shown in Table 11.

T1 sequence (P28223 whole entry): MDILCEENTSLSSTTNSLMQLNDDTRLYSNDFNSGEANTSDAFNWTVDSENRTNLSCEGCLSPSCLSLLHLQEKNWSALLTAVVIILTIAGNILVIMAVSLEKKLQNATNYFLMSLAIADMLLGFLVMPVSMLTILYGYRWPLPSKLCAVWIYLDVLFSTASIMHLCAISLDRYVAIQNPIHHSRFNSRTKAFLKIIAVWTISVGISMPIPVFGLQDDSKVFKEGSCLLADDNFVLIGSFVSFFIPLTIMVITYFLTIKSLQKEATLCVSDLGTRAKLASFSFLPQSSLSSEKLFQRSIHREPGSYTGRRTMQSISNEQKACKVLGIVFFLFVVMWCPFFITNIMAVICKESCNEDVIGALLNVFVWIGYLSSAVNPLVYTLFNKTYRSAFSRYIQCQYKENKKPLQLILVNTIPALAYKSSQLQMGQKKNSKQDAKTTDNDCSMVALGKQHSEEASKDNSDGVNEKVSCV

| Structure (SMILES) | IC50 [µM] |
| --- | --- |
| C[C@H](C(=O)n1ccc2cc(F)ccc21)N(C)C [Example 48, (R)-2-(dimethylamino)-1-(5-fluoro-1H-indol-1-yl)propan-1-one] | > 10 |
| C[C@H](C(=O)n1ccc2ccccc21)N(C)C [Example 46, (R)-2-(dimethylamino)-1-(1H-indol-1-yl)propan-1-one] | > 10 |

same assay, conditions: [3H]-DOI competition, membrane extracts; read-out: 5-HT2A Radioligand Binding Activity

| Structure (SMILES) | IC50 [µM] |
| --- | --- |
| CN(C)CC(=O)n1ccc2cc(F)ccc21 [Example 43, 2-(dimethylamino)-1-(5-fluoro-1H-indol-1-yl)ethan-1-one] | > 10 |
| CN(C)C(C)(C)Cn1ccc2cccc(F)c21 [Example 20, 1-(7-fluoro-1H-indol-1-yl)-N,N,2-trimethylpropan-2-amine] | > 10 |
| CN(C)C(C)(C)Cn1ccc2c(F)c(F)ccc21 [Example 12, 1-(4,5-difluoro-1H-indol-1-yl)-N,N,2-trimethylpropan-2-amine] | > 10 |
| COc1ccc2c(ccn2CC(C)(C)N(C)C)c1F [Example 15, 1-(4-fluoro-5-methoxy-1H-indol-1-yl)-N,N,2-trimethylpropan-2-amine] | > 10 |
| COc1ncc2c(ccn2CC(C)(C)N(C)C)n1 [Example 23, 1-(2-methoxy-5H-pyrrolo[3,2-d]pyrimidin-5-yl)-N,N,2-trimethylpropan-2-amine] | > 10 |
| C[C@@H](N)Cn1ccc2cncnc21 [Example 26, (R)-1-(7H-pyrrolo[2,3-d]pyrimidin-7-yl)propan-2-amine] | > 10 |
| COc1ccc2c(c1)CN(CCN(C)C)C2 [Example 10, 2-(5-methoxyisoindolin-2-yl)-N,N-dimethylethan-1-amine] | 1 to 10 |
| COc1cc2ccn(CC(C)(C)N(C)C)c2cn1 [Example 22, 1-(5-methoxy-1H-pyrrolo[2,3-c]pyridin-1-yl)-N,N,2-trimethylpropan-2-amine] | > 10 |
| COc1ccc2c(c1)CCN(CCN(C)C)C2 [Example 11, 2-(6-methoxy-3,4-dihydroisoguinolin-2(1H)-yl)-N,N-dimethylethan-1-amine] | 0.101 to 1 |
| C[C@@H](N)Cn1ccc2cnccc21 [Example 37, (R)-1-(1H-pyrrolo[3,2-c]pyridin-1-yl)propan-2-amine] | > 10 |
| CN(C)C(C)(C)Cn1ccc2ccc(F)cc21 [Example 19, 1-(6-fluoro-1H-indol-1-yl)-N,N,2-trimethylpropan-2-amine] | > 10 |
| COc1ccc2c(ccn2CC(C)(C)N(C)C)n1 [Example 21, 1-(5-methoxy-1H-pyrrolo[3,2-b]pyridin-1-yl)-N,N,2-trimethylpropan-2-amine] | > 10 |
| CC(C)(N)Cn1ccc2c(F)c(F)ccc21 [Example 41, 1-(4,5-difluoro-1H-indol-1-yl)-2-methylpropan-2-amine] | 1 to 10 |
| CN(C)C(C)(C)Cn1ccc2c(F)cccc21 [Example 18, 1-(4-fluoro-1H-indol-1-yl)-N,N,2-trimethylpropan-2-amine] | > 10 |
| COc1cc(F)c2c(ccn2CC(C)(C)N(C)C)c1 [Example 17, 1-(7-fluoro-5-methoxy-1H-indol-1-yl)-N,N,2-trimethylpropan-2-amine] | > 10 |
| CN(C)CC(=O)n1ccc2ccccc21 [Example 44, 2-(dimethylamino)-1-(1H-indol-1-yl)ethan-1-one] | > 10 |
| COc1cc2ccn(CC(C)(C)N(C)C)c2cc1F [Example 16, 1-(6-fluoro-5-methoxy-1H-indol-1-yl)-N,N,2-trimethylpropan-2-amine] | > 10 |
| Cc1cn(CC(C)(C)N)c2ccc(F)cc12 [Example 40, 1-(5-fluoro-3-methyl-1H-indol-1-yl)-2-methylpropan-2-amine] | 1 to 10 |
| CN(C)C(C)(C)Cn1ccc2cc(F)ccc21 [Example 14, 1-(5-fluoro-1H-indol-1-yl)-N,N,2-trimethylpropan-2-amine] | > 10 |
| COc1ccc2c(ccn2CC(C)(C)N)c1 [Example 42, 1-(5-methoxy-1H-indol-1-yl)-2-methylpropan-2-amine] | > 10 |
| Cc1cn(CC(C)(C)N(C)C)c2ccc(F)cc12 [Example 13, 1-(5-fluoro-3-methyl-1H-indol-1-yl)-N,N,2-trimethylpropan-2-amine] | > 10 |
| COc1cnc2c(ccn2C[C@@H](C)N)c1 [Example 34, (R)-1-(5-methoxy-1H-pyrrolo[2,3-b]pyridin-1-yl)propan-2-amine] | > 10 |
| CN[C@H](C)Cn1ccc2cnccc21 [Example 38, (R)—N-methyl-1-(1H-pyrrolo[3,2-c]pyridin-1-yl)propan-2-amine] | > 10 |
| CN[C@H](C)Cn1ccc2cc(OC)cnc21 [Example 35, (R)-1-(5-methoxy-1H-pyrrolo[2,3-b]pyridin-1-yl)-N-methylpropan-2-amine] | > 10 |

molecular target: T1, 5HT2A; experiment: Serotonin 5-HT2A in vitro cellular IPOne agonism assay; type: cell-based; set-up: host or cells: CHO-K1; settings: not given
Procedure: Serotonin 5-HT2A In Vitro Cellular IPOne Agonism Assay. The 5-HT2A IPOne HTRF assay was performed at Epics Therapeutics S.A. (Belgium, FAST-0505I) using conventional methods. Briefly, CHO-K1 cells expressing human recombinant 5-HT2A receptor grown to mid-log phase in culture media without antibiotics were detached with PBS-EDTA, centrifuged, and resuspended in medium without antibiotics buffer. 20,000 cells are distributed in a 96 well plate and incubated overnight at 37° C. with 5% CO2.
For agonist testing, the medium is removed and 20 μl of assay buffer plus 20 μl of test compound or reference agonist are added in each well. The plate is incubated for 60 min. at 37° C. with 5% CO2.
After addition of the lysis buffer containing IP1-d2 and anti-IP1 cryptate detection reagents, plates are incubated 1-hour at room temperature, and fluorescence ratios are measured according to the manufacturer specification, with the HTRF kit.
as §1

| Structure (SMILES) | EC50 [µM] |
| --- | --- |
| C[C@H](C(=O)n1ccc2cc(F)ccc21)N(C)C [Example 48, (R)-2-(dimethylamino)-1-(5-fluoro-1H-indol-1-yl)propan-1-one] | > 10 |
| C[C@H](C(=O)n1ccc2ccccc21)N(C)C [Example 46, (R)-2-(dimethylamino)-1-(1H-indol-1-yl)propan-1-one] | > 10 |

same assay, conditions: CHO-K1 cells, IPOne HTRF; read-out: 5-HT2A IPOne Agonism Activity

| Structure (SMILES) | EC50 [µM] |
| --- | --- |
| CN(C)CC(=O)n1ccc2cc(F)ccc21 [Example 43, 2-(dimethylamino)-1-(5-fluoro-1H-indol-1-yl)ethan-1-one] | > 10 |
| CN(C)C(C)(C)Cn1ccc2cccc(F)c21 [Example 20, 1-(7-fluoro-1H-indol-1-yl)-N,N,2-trimethylpropan-2-amine] | > 10 |
| CN(C)C(C)(C)Cn1ccc2c(F)c(F)ccc21 [Example 12, 1-(4,5-difluoro-1H-indol-1-yl)-N,N,2-trimethylpropan-2-amine] | > 10 |
| COc1ccc2c(ccn2CC(C)(C)N(C)C)c1F [Example 15, 1-(4-fluoro-5-methoxy-1H-indol-1-yl)-N,N,2-trimethylpropan-2-amine] | > 10 |
| COc1ncc2c(ccn2CC(C)(C)N(C)C)n1 [Example 23, 1-(2-methoxy-5H-pyrrolo[3,2-d]pyrimidin-5-yl)-N,N,2-trimethylpropan-2-amine] | > 10 |
| C[C@@H](N)Cn1ccc2cncnc21 [Example 26, (R)-1-(7H-pyrrolo[2,3-d]pyrimidin-7-yl)propan-2-amine] | 1 to 10 |
| COc1ccc2c(c1)CN(CCN(C)C)C2 [Example 10, 2-(5-methoxyisoindolin-2-yl)-N,N-dimethylethan-1-amine] | > 10 |
| COc1cc2ccn(CC(C)(C)N(C)C)c2cn1 [Example 22, 1-(5-methoxy-1H-pyrrolo[2,3-c]pyridin-1-yl)-N,N,2-trimethylpropan-2-amine] | > 10 |
| COc1ccc2c(c1)CCN(CCN(C)C)C2 [Example 11, 2-(6-methoxy-3,4-dihydroisoguinolin-2(1H)-yl)-N,N-dimethylethan-1-amine] | > 10 |
| C[C@@H](N)Cn1ccc2cnccc21 [Example 37, (R)-1-(1H-pyrrolo[3,2-c]pyridin-1-yl)propan-2-amine] | > 10 |
| CN(C)C(C)(C)Cn1ccc2ccc(F)cc21 [Example 19, 1-(6-fluoro-1H-indol-1-yl)-N,N,2-trimethylpropan-2-amine] | > 10 |
| COc1ccc2c(ccn2CC(C)(C)N(C)C)n1 [Example 21, 1-(5-methoxy-1H-pyrrolo[3,2-b]pyridin-1-yl)-N,N,2-trimethylpropan-2-amine] | > 10 |
| CC(C)(N)Cn1ccc2c(F)c(F)ccc21 [Example 41, 1-(4,5-difluoro-1H-indol-1-yl)-2-methylpropan-2-amine] | 1 to 10 |
| CN(C)C(C)(C)Cn1ccc2c(F)cccc21 [Example 18, 1-(4-fluoro-1H-indol-1-yl)-N,N,2-trimethylpropan-2-amine] | > 10 |
| COc1cc(F)c2c(ccn2CC(C)(C)N(C)C)c1 [Example 17, 1-(7-fluoro-5-methoxy-1H-indol-1-yl)-N,N,2-trimethylpropan-2-amine] | > 10 |
| CN(C)CC(=O)n1ccc2ccccc21 [Example 44, 2-(dimethylamino)-1-(1H-indol-1-yl)ethan-1-one] | > 10 |
| COc1cc2ccn(CC(C)(C)N(C)C)c2cc1F [Example 16, 1-(6-fluoro-5-methoxy-1H-indol-1-yl)-N,N,2-trimethylpropan-2-amine] | > 10 |
| Cc1cn(CC(C)(C)N)c2ccc(F)cc12 [Example 40, 1-(5-fluoro-3-methyl-1H-indol-1-yl)-2-methylpropan-2-amine] | 1 to 10 |
| CN(C)C(C)(C)Cn1ccc2cc(F)ccc21 [Example 14, 1-(5-fluoro-1H-indol-1-yl)-N,N,2-trimethylpropan-2-amine] | > 10 |
| COc1ccc2c(ccn2CC(C)(C)N)c1 [Example 42, 1-(5-methoxy-1H-indol-1-yl)-2-methylpropan-2-amine] | 1 to 10 |
| Cc1cn(CC(C)(C)N(C)C)c2ccc(F)cc12 [Example 13, 1-(5-fluoro-3-methyl-1H-indol-1-yl)-N,N,2-trimethylpropan-2-amine] | 1 to 10 |
| COc1cnc2c(ccn2C[C@@H](C)N)c1 [Example 34, (R)-1-(5-methoxy-1H-pyrrolo[2,3-b]pyridin-1-yl)propan-2-amine] | 1 to 10 |
| CN[C@H](C)Cn1ccc2cnccc21 [Example 38, (R)—N-methyl-1-(1H-pyrrolo[3,2-c]pyridin-1-yl)propan-2-amine] | > 10 |
| CN[C@H](C)Cn1ccc2cc(OC)cnc21 [Example 35, (R)-1-(5-methoxy-1H-pyrrolo[2,3-b]pyridin-1-yl)-N-methylpropan-2-amine] | > 10 |
